Experiments:
Conditions in all cases: route oral
Rattus norvegicus [1] = test: percentage decrease in heart rate after 6 hr at a dose of 0.3 mg/kg administered perorally in rats; type: functional
Rattus norvegicus [2] = test: percentage decrease in heart rate after 1 hr at a dose of 3 mg/kg administered perorally in rats; type: functional
Rattus norvegicus [3] = test: Percentage decrease in systolic blood pressure after 6 hr at 30 mg/kg administered perorally in rats; type: functional, Artery
Rattus norvegicus [4] = test: percentage decrease in heart rate after 24 hr at a dose of 10 mg/kg administered perorally in rats; type: functional
Rattus norvegicus [5] = test: percentage decrease in heart rate after 6 hr at a dose of 30 mg/kg administered perorally in rats; type: functional
Rattus norvegicus [6] = test: percentage decrease in heart rate after 4 hr at a dose of 10 mg/kg administered perorally in rats; type: functional
Rattus norvegicus [7] = test: percentage decrease in heart rate after 1 hr at a dose of 30 mg/kg administered perorally in rats; type: functional
Rattus norvegicus [8] = test: Percentage decrease in systolic blood pressure after 24 hr at 0.3 mg/kg administered perorally in rats; type: functional, Artery
Rattus norvegicus [9] = test: percentage decrease in heart rate after 6 hr at a dose of 10 mg/kg administered perorally in rats; type: functional
Rattus norvegicus [10] = test: Percentage decrease in systolic blood pressure after 4 hr at 30 mg/kg administered perorally in rats; type: functional, Artery
Rattus norvegicus [11] = test: Percentage decrease in systolic blood pressure after 24 hr at 1 mg/kg administered perorally in rats; type: functional, Artery
Rattus norvegicus [12] = test: percentage decrease in heart rate after 4 hr at a dose of 3 mg/kg administered perorally in rats; type: functional
Rattus norvegicus [13] = test: Percentage decrease in systolic blood pressure after 4 hr at 0.3 mg/kg administered perorally in rats; type: functional, Artery
Rattus norvegicus [14] = test: percentage decrease in heart rate after 4 hr at a dose of 1 mg/kg administered perorally in rats; type: functional
Rattus norvegicus [15] = test: Percentage decrease in systolic blood pressure after 24 hr at 3 mg/kg administered perorally in rats; type: functional, Artery
Rattus norvegicus [16] = test: Percentage decrease in systolic blood pressure after 1 hr at 30 mg/kg administered perorally in rats; type: functional, Artery
Rattus norvegicus [17] = test: percentage decrease in heart rate after 4 hr at a dose of 30 mg/kg administered perorally in rats; type: functional
Rattus norvegicus [18] = test: Percentage decrease in systolic blood pressure after 6 hr at 1 mg/kg administered perorally in rats; type: functional, Artery
Rattus norvegicus [19] = test: Percentage decrease in systolic blood pressure after 4 hr at 10 mg/kg administered perorally in rats; type: functional, Artery
Rattus norvegicus [20] = test: percentage decrease in heart rate after 1 hr at a dose of 10 mg/kg administered perorally in rats; type: functional
Rattus norvegicus [21] = test: Percentage decrease in systolic blood pressure after 1 hr at 1 mg/kg administered perorally in rats; type: functional, Artery
Rattus norvegicus [22] = test: percentage decrease in heart rate after 24 hr at a dose of 0.3 mg/kg administered perorally in rats; type: functional
Rattus norvegicus [23] = test: Percentage decrease in systolic blood pressure after 6 hr at 3 mg/kg administered perorally in rats; type: functional, Artery
Rattus norvegicus [24] = test: percentage decrease in heart rate after 6 hr at a dose of 3 mg/kg administered perorally in rats; type: functional
Rattus norvegicus [25] = test: Percentage decrease in systolic blood pressure after 24 hr at 30 mg/kg administered perorally in rats; type: functional, Artery
Rattus norvegicus [26] = test: Percentage decrease in systolic blood pressure after 1 hr at 0.3 mg/kg administered perorally in rats; type: functional, Artery
Rattus norvegicus [27] = test: percentage decrease in heart rate after 4 hr at a dose of 0.3 mg/kg administered perorally in rats; type: functional
Rattus norvegicus [28] = test: Percentage decrease in systolic blood pressure after 6 hr at 0.3 mg/kg administered perorally in rats; type: functional, Artery
Rattus norvegicus [29] = test: Percentage decrease in systolic blood pressure after 4 hr at 3 mg/kg administered perorally in rats; type: functional, Artery
Rattus norvegicus [30] = test: percentage decrease in heart rate after 24 hr at a dose of 1 mg/kg administered perorally in rats; type: functional
Rattus norvegicus [31] = test: Percentage decrease in systolic blood pressure after 6 hr at 10 mg/kg administered perorally in rats; type: functional, Artery
Rattus norvegicus [32] = test: Percentage decrease in systolic blood pressure after 1 hr at 3 mg/kg administered perorally in rats; type: functional, Artery
Rattus norvegicus [33] = test: percentage decrease in heart rate after 1 hr at a dose of 1 mg/kg administered perorally in rats; type: functional
Rattus norvegicus [34] = test: Percentage decrease in systolic blood pressure after 24 hr at 10 mg/kg administered perorally in rats; type: functional, Artery
Rattus norvegicus [35] = test: percentage decrease in heart rate after 24 hr at a dose of 3 mg/kg administered perorally in rats; type: functional
Rattus norvegicus [36] = test: Percentage decrease in systolic blood pressure after 4 hr at 1 mg/kg administered perorally in rats; type: functional, Artery
Rattus norvegicus [37] = test: percentage decrease in heart rate after 1 hr at a dose of 0.3 mg/kg administered perorally in rats; type: functional
Rattus norvegicus [38] = test: percentage decrease in heart rate after 6 hr at a dose of 1 mg/kg administered perorally in rats; type: functional
Rattus norvegicus [39] = test: Percentage decrease in systolic blood pressure after 1 hr at 10 mg/kg administered perorally in rats; type: functional, Artery
Rattus norvegicus [40] = test: percentage decrease in heart rate after 24 hr at a dose of 10 mg/kg administered perorally in rats.; type: functional
Rattus norvegicus [41] = test: percentage decrease in heart rate after 24 hr at a dose of 1 mg/kg administered perorally in rats.; type: functional
Rattus norvegicus [42] = test: Effect on spontaneous motor activity in rats after 1 hr at 300 mg/kg given perorally; values less than 25 % are inactive; type: functional
Rattus norvegicus [43] = test: percentage decrease in heart rate after 4 hr at a dose of 3 mg/kg administered perorally in rats.; type: functional
Rattus norvegicus [44] = test: percentage decrease in heart rate after 6 hr at a dose of 30 mg/kg administered perorally in rats.; type: functional
Rattus norvegicus [45] = test: Percentage decrease in systolic blood pressure (heart rate) after 6 hr at 30 mg/kg administered perorally in rats; type: functional, Artery
Rattus norvegicus [46] = test: Effect on spontaneous motor activity in rats after 2 hr at 10 mg/kg given perorally; type: functional
Rattus norvegicus [47] = test: percentage decrease in heart rate after 4 hr at a dose of 30 mg/kg administered perorally in rats.; type: functional
Rattus norvegicus [48] = test: percentage decrease in heart rate after 6 hr at a dose of 1 mg/kg administered perorally in rats.; type: functional
Rattus norvegicus [49] = test: Percentage decrease in systolic blood pressure (heart rate) after 6 hr at 10 mg/kg administered perorally in rats; type: functional, Artery
Rattus norvegicus [50] = test: Cumulative effect on spontaneous motor activity in rats at 300 mg/kg given perorally; values less than 25 % are inactive; type: functional
Rattus norvegicus [51] = test: percentage decrease in heart rate after 6 hr at a dose of 3 mg/kg administered perorally in rats.; type: functional
Rattus norvegicus [52] = test: Effect on spontaneous motor activity in rats after 2 hr at 30 mg/kg given perorally; values less than 25 % are inactive; type: functional
Rattus norvegicus [53] = test: percentage decrease in heart rate after 4 hr at a dose of 10 mg/kg administered perorally in rats.; type: functional
Rattus norvegicus [54] = test: Cumulative effect on spontaneous motor activity in rats at 100 mg/kg given perorally; type: functional
Rattus norvegicus [55] = test: Cumulative effect on spontaneous motor activity in rats at 10 mg/kg given perorally; type: functional
Rattus norvegicus [56] = test: Effect on spontaneous motor activity in rats after 2 hr at 300 mg/kg given perorally; values less than 25 % are inactive; type: functional
Rattus norvegicus [57] = test: percentage decrease in heart rate after 24 hr at a dose of 3 mg/kg administered perorally in rats.; type: functional
Rattus norvegicus [58] = test: percentage decrease in heart rate after 1 hr at a dose of 10 mg/kg administered perorally in rats.; type: functional
Rattus norvegicus [59] = test: percentage decrease in heart rate after 24 hr at a dose of 30 mg/kg administered perorally in rats.; type: functional
Rattus norvegicus [60] = test: Percentage decrease in systolic blood pressure (heart rate) after 24 hr at 30 mg/kg administered perorally in rats; type: functional, Artery
Rattus norvegicus [61] = test: Effect on spontaneous motor activity in rats after 1 hr at 10 mg/kg given perorally; type: functional
Rattus norvegicus [62] = test: percentage decrease in heart rate after 4 hr at a dose of 1 mg/kg administered perorally in rats.; type: functional
Rattus norvegicus [63] = test: percentage decrease in heart rate after 1 hr at a dose of 3 mg/kg administered perorally in rats.; type: functional
Rattus norvegicus [64] = test: Percentage decrease in systolic blood pressure (heart rate) after 4 hr at 10 mg/kg administered perorally in rats; type: functional, Artery
Rattus norvegicus [65] = test: Effect on spontaneous motor activity in rats after 1 hr at 30 mg/kg given perorally; type: functional
Rattus norvegicus [66] = test: percentage decrease in heart rate after 6 hr at a dose of 10 mg/kg administered perorally in rats.; type: functional
Rattus norvegicus [67] = test: Effect on spontaneous motor activity in rats after 2 hr at 100 mg/kg given perorally; type: functional
Rattus norvegicus [68] = test: Cumulative effect on spontaneous motor activity in rats at 30 mg/kg given perorally; type: functional
Rattus norvegicus [69] = test: percentage decrease in heart rate after 1 hr at a dose of 1 mg/kg administered perorally in rats.; type: functional
Rattus norvegicus [70] = test: Effect on spontaneous motor activity in rats after 1 hr at 100 mg/kg given perorally; type: functional
Rattus norvegicus [71] = test: Percentage decrease in systolic blood pressure (heart rate) after 1 hr at 10 mg/kg administered perorally in rats; type: functional, Artery

Structure (SMILES): C#CCN1CCC2=C(C1)c1c(O)cc(C(C)CCCc3ccc(F)cc3)cc1OC2(C)C (stereo unspecified)
- Heart rate (Rattus norvegicus [1]): -12%
- Heart rate (Rattus norvegicus [2]): -7%
- Decrease in Systolic blood pressure (Rattus norvegicus [3]): 26%
- Heart rate (Rattus norvegicus [4]): -6%
- Heart rate (Rattus norvegicus [5]): 36%
- Heart rate (Rattus norvegicus [6]): -2%
- Heart rate (Rattus norvegicus [7]): 5%
- Decrease in Systolic blood pressure (Rattus norvegicus [8]): -3%
- Heart rate (Rattus norvegicus [9]): 1%
- Decrease in Systolic blood pressure (Rattus norvegicus [10]): 23%
- Decrease in Systolic blood pressure (Rattus norvegicus [11]): 9%
- Heart rate (Rattus norvegicus [12]): 10%
- Decrease in Systolic blood pressure (Rattus norvegicus [13]): -7%
- Heart rate (Rattus norvegicus [14]): 3%
- Decrease in Systolic blood pressure (Rattus norvegicus [15]): 11%
- Decrease in Systolic blood pressure (Rattus norvegicus [16]): 33%
- Heart rate (Rattus norvegicus [17]): 16%
- Decrease in Systolic blood pressure (Rattus norvegicus [18]): 5%
- Decrease in Systolic blood pressure (Rattus norvegicus [19]): 30%
- Heart rate (Rattus norvegicus [20]): -3%
- Decrease in Systolic blood pressure (Rattus norvegicus [21]): 1%
- Heart rate (Rattus norvegicus [22]): -5%
- Decrease in Systolic blood pressure (Rattus norvegicus [23]): 9%
- Heart rate (Rattus norvegicus [24]): -7%
- Decrease in Systolic blood pressure (Rattus norvegicus [25]): 43%
- Decrease in Systolic blood pressure (Rattus norvegicus [26]): -5%
- Heart rate (Rattus norvegicus [27]): -10%
- Decrease in Systolic blood pressure (Rattus norvegicus [28]): -5%
- Decrease in Systolic blood pressure (Rattus norvegicus [29]): 27%
- Heart rate (Rattus norvegicus [30]): -18%
- Decrease in Systolic blood pressure (Rattus norvegicus [31]): 20%
- Decrease in Systolic blood pressure (Rattus norvegicus [32]): 8%
- Heart rate (Rattus norvegicus [33]): -9%
- Decrease in Systolic blood pressure (Rattus norvegicus [34]): 20%
- Heart rate (Rattus norvegicus [35]): -14%
- Decrease in Systolic blood pressure (Rattus norvegicus [36]): 17%
- Heart rate (Rattus norvegicus [37]): -29%
- Heart rate (Rattus norvegicus [38]): 5%
- Decrease in Systolic blood pressure (Rattus norvegicus [39]): 34%

Structure (SMILES): CCCCCC(C)C(C)c1cc(O)c2c(c1)OC(C)(C)C1=C2CN(C(=O)CO)CC1 (stereo unspecified)
- Heart rate (Rattus norvegicus [40]): 11%
- Heart rate (Rattus norvegicus [41]): -18%
- Activity (Rattus norvegicus [42]): -46%
- Heart rate (Rattus norvegicus [43]): -1%
- Heart rate (Rattus norvegicus [44]): 6%
- Decrease in Systolic blood pressure (Rattus norvegicus [45]): 24%
- Decrease in Systolic blood pressure (Rattus norvegicus [10]): 26%
- Activity (Rattus norvegicus [46]): 116%
- Heart rate (Rattus norvegicus [47]): 25%
- Decrease in Systolic blood pressure (Rattus norvegicus [11]): -5%
- Heart rate (Rattus norvegicus [48]): -22%
- Decrease in Systolic blood pressure (Rattus norvegicus [49]): 19%
- Decrease in Systolic blood pressure (Rattus norvegicus [15]): 3%
- Activity (Rattus norvegicus [50]): -45%
- Heart rate (Rattus norvegicus [51]): -12%
- Decrease in Systolic blood pressure (Rattus norvegicus [18]): -5%
- Activity (Rattus norvegicus [52]): 23%
- Decrease in Systolic blood pressure (Rattus norvegicus [21]): 0%
- Decrease in Systolic blood pressure (Rattus norvegicus [23]): 3%
- Heart rate (Rattus norvegicus [53]): 25%
- Activity (Rattus norvegicus [54]): 30%
- Activity (Rattus norvegicus [55]): 50%
- Activity (Rattus norvegicus [56]): -42%
- Heart rate (Rattus norvegicus [57]): 6%
- Heart rate (Rattus norvegicus [58]): 12%
- Heart rate (Rattus norvegicus [59]): -1%
- Decrease in Systolic blood pressure (Rattus norvegicus [60]): 16%
- Activity (Rattus norvegicus [61]): 38%
- Heart rate (Rattus norvegicus [62]): -18%
- Heart rate (Rattus norvegicus [63]): -3%
- Decrease in Systolic blood pressure (Rattus norvegicus [64]): 34%
- Activity (Rattus norvegicus [65]): 67%
- Heart rate (Rattus norvegicus [66]): 7%
- Decrease in Systolic blood pressure (Rattus norvegicus [29]): 15%
- Activity (Rattus norvegicus [67]): 32%
- Activity (Rattus norvegicus [68]): 60%
- Decrease in Systolic blood pressure (Rattus norvegicus [32]): 9%
- Heart rate (Rattus norvegicus [69]): -18%
- Decrease in Systolic blood pressure (Rattus norvegicus [34]): 4%
- Activity (Rattus norvegicus [70]): 29%
- Decrease in Systolic blood pressure (Rattus norvegicus [36]): 0%
- Decrease in Systolic blood pressure (Rattus norvegicus [71]): 20%
